{"source": "paper PMC7235250", "about": "“Estimation of dietary ^14C dose coefficient using ^13C-labelled compound administration analysis” (Scientific Reports, 2020)", "key": {"[1]": {"set-up": "method as in PMID 14371643", "conditions": "intravenous administration; cited from earlier work"}, "[2]": {"set-up": "method as in doi:10.1093/oxfordjournals.rpd.a032384", "conditions": "rats, 100 days after administration; cited from earlier work"}, "[3]": {"experiment": "Second experiment: ^13C-labelled compounds once daily for 4 successive days, ^13C/^12C ratio in breath and hair, metabolic model", "conditions": "oral once daily for 4 days; for Rr, recovery ratio of administered ^13C / dB, distribution ratio of ^13C into breath pathway to administered ^13C / dBf, distribution ratio into fast compartment of breath pathway / dO, distribution ratio of ^13C into other* pathway (hair) to administered ^13C / dOf, distribution ratio into fast compartment of other* pathway / kBf, excretion rate constant, fast compartment, breath pathway / kBs, excretion rate constant, slow compartment, breath pathway / kOf, excretion rate constant, fast compartment, other* pathway / kOs, excretion rate constant, slow compartment, other* pathway: mean", "description": "The rate of ^13C excretion for each pathway (Em, g d^−1) is given by the following equations:1 Em=∑nkmndmdmnkm/km−kmn(e^−kmnt−e^−kmt) where, m is the excretion pathway symbol of B, U, F, and O corresponding to the excretion pathways of breath, urine, faeces, and other*, respectively; n is the symbol of f and s corresponding to the compartments with fast and slow metabolism, respectively; km and kmn are the excretion rate constants from compartment Cm and Cmn, respectively; dm is the distribution ratio of ^13C into compartment Cm to the administered ^13C; dmn is the distribution ratio of ^13C into compartment Cmn to ^13C from compartment Cm; Rr is the recovery ratio of administered ^13C. The sum of distribution ratios of compartments with fast and slow metabolism was fixed to unity (i.e. dBf + dBs = 1).\nAdditional doses of ^13C-labelled compounds were administered on day 160 for marking the ^13C/^12C ratio of hair samples and the volunteers freely ate meals without calorific restrictions.\nIn the first experiment, breath, urine, faeces, and hair samples were periodically collected and the ^13C/^12C ratio was analysed following the procedure described in a previous paper. […] Faecal samples were collected once before day 0 and at every defecation from day 0 to 14. On day 0, additional breath and urine samples were collected frequently after administration. […] According to the section number of the two peaks, the experimental date for each section between the two peaks was determined under an assumption of uniform hair growth.\nSome volunteers also dropped out of the sampling procedure for various reasons.\nThe detailed procedures used were described in a previous published paper. When urine and hair samples had no increase phase, the values of kU and kO were fixed to those of kB obtained from the same volunteers in the regression analysis."}, "[4]": {"experiment": "50-year cumulative body burden and committed effective dose / dose coefficient calculated with the metabolic models", "set-up": "species or system human", "conditions": "orally ingested 1 g of ^13C", "quoted_text": "The dose coefficients obtained with each assumption are called non conservative estimation (ER) and conservative estimation (EC) hereafter. The recovered fraction was assumed to be distributed uniformly in the whole-body carbon with a tissue weighting factor of unity. […] In addition to these estimations, we calculated the most conservative estimation (EX) adopting the tissue weighting factor of unity for unrecovered carbon. We solely adopted the value for the maximal estimation.\nThe 50-year cumulative body burden of ^14C after a single ingestion of 1 Bq of ^14C in each compound (BC Bq d) was calculated using the metabolic model and its parameters described above, under the assumption of the same metabolic behaviour of ^13C and ^14C. […] The total cumulative burden was derived as a sum of burdens from the recoverable and unrecoverable fractions with designated proportions Rr and 1−Rr, respectively. For the recoverable fraction, the burden was calculated using following equation:2 BC≈∑mdm/km+∑m∑ndmdmn/kmn where, every dm was divided by Rr when Rr was larger than unity.\nThe 50-year committed effective dose (Sv) from ingestion of 1 Bq ^14C was calculated from the 50-year cumulative burden by using the ratio of absorbed dose to ^14C radioactivity, radiation weighting factor of beta-ray from ^14C (1.0) and tissue weighting factors. […]"}}, "data": [{"smiles": "N[14CH2]C(=O)O", "note": "[glycine-[2-^14C]]", "values": [{"measurement": "recovery through the breath pathway", "setting": "[1]", "value": 86, "unit": "%"}]}, {"smiles": "CCCCCCCC/C=C\\CCCCCCCC(=O)O", "note": "[^14C-labelled oleic acid, oleic acid]", "values": [{"measurement": "^14C concentration in adipose tissue relative to that of palmitic acid", "setting": "[2]", "value": "three times higher"}]}, {"smiles": "NCC(=O)O", "note": "[Glycine, glycine]", "values": [{"measurement": "Rr, recovery ratio of administered ^13C", "setting": "[3]; All (both sexes)", "value": 1.0}, {"measurement": "dB, distribution ratio of ^13C into breath pathway to administered ^13C", "setting": "[3]; All (both sexes)", "value": 0.80}, {"measurement": "dBf, distribution ratio into fast compartment of breath pathway", "setting": "[3]; All (both sexes)", "value": 0.36}, {"measurement": "dO, distribution ratio of ^13C into other* pathway (hair) to administered ^13C", "setting": "[3]; All (both sexes)", "value": 0.18}, {"measurement": "dOf, distribution ratio into fast compartment of other* pathway", "setting": "[3]; All (both sexes)", "value": 0.50}, {"measurement": "kBf, excretion rate constant, fast compartment, breath pathway", "setting": "[3]; All (both sexes)", "value": 11, "unit": "day⁻¹"}, {"measurement": "kBs, excretion rate constant, slow compartment, breath pathway", "setting": "[3]; All (both sexes)", "value": 0.17, "unit": "day⁻¹"}, {"measurement": "kOf, excretion rate constant, fast compartment, other* pathway", "setting": "[3]; All (both sexes)", "value": 0.10, "unit": "day⁻¹"}, {"measurement": "kOs, excretion rate constant, slow compartment, other* pathway", "setting": "[3]; All (both sexes)", "value": 0.0086, "unit": "day⁻¹"}, {"measurement": "Rr, recovery ratio of administered ^13C", "setting": "[3]; Female", "value": 1.0}, {"measurement": "dB, distribution ratio of ^13C into breath pathway to administered ^13C", "setting": "[3]; Female", "value": 0.84}, {"measurement": "dBf, distribution ratio into fast compartment of breath pathway", "setting": "[3]; Female", "value": 0.36}, {"measurement": "dO, distribution ratio of ^13C into other* pathway (hair) to administered ^13C", "setting": "[3]; Female", "value": 0.18}, {"measurement": "dOf, distribution ratio into fast compartment of other* pathway", "setting": "[3]; Female", "value": 0.52}, {"measurement": "kBf, excretion rate constant, fast compartment, breath pathway", "setting": "[3]; Female", "value": 11, "unit": "day⁻¹"}, {"measurement": "kBs, excretion rate constant, slow compartment, breath pathway", "setting": "[3]; Female", "value": 0.18, "unit": "day⁻¹"}, {"measurement": "kOf, excretion rate constant, fast compartment, other* pathway", "setting": "[3]; Female", "value": 0.098, "unit": "day⁻¹"}, {"measurement": "kOs, excretion rate constant, slow compartment, other* pathway", "setting": "[3]; Female", "value": 0.0091, "unit": "day⁻¹"}, {"measurement": "Rr, recovery ratio of administered ^13C", "setting": "[3]; Male", "value": 0.93}, {"measurement": "dB, distribution ratio of ^13C into breath pathway to administered ^13C", "setting": "[3]; Male", "value": 0.74}, {"measurement": "dBf, distribution ratio into fast compartment of breath pathway", "setting": "[3]; Male", "value": 0.37}, {"measurement": "dO, distribution ratio of ^13C into other* pathway (hair) to administered ^13C", "setting": "[3]; Male", "value": 0.18}, {"measurement": "dOf, distribution ratio into fast compartment of other* pathway", "setting": "[3]; Male", "value": 0.47}, {"measurement": "kBf, excretion rate constant, fast compartment, breath pathway", "setting": "[3]; Male", "value": 9.7, "unit": "day⁻¹"}, {"measurement": "kBs, excretion rate constant, slow compartment, breath pathway", "setting": "[3]; Male", "value": 0.16, "unit": "day⁻¹"}, {"measurement": "kOf, excretion rate constant, fast compartment, other* pathway", "setting": "[3]; Male", "value": 0.11, "unit": "day⁻¹"}, {"measurement": "kOs, excretion rate constant, slow compartment, other* pathway", "setting": "[3]; Male", "value": 0.0080, "unit": "day⁻¹"}, {"measurement": "estimated distribution ratio of ^13C for the breath pathway (dB)", "setting": "[3]; mean ± S.D., both sexes", "value": "80 ± 9", "unit": "%"}]}, {"smiles": "CCCCCCCCCCCCCCCC(=O)O", "note": "[palmitic acid]", "values": [{"measurement": "contribution of faeces pathway to 50-year cumulative body burden", "setting": "[4]", "value": "0.034 ± 0.070", "unit": "%"}, {"measurement": "contribution of urine pathway to 50-year cumulative body burden", "setting": "[4]", "value": "0.038 ± 0.030", "unit": "%"}]}]}
